“And” between values parts separate entries of the source, which are not always exact repeats. Equal values may be shown once.
Legend:
[1] = tested on: Nephrectomized C57BL/6 mice with liver IR; test: Nephrectomized C57BL/6 mice with 45 min. liver IR: serum ALT; format: in vivo, mouse
Experimental: Normally, 1 hour of liver IR results in serum ALT increasing to 15076±1174 U/L (N=6) 24 hours later. In nephrectomized mice, however, the rise in ALT was more severe, and it rose to 20237±2628 U/L (N=3) after only 45 minutes of liver IR. The nephrectomized mice were also less responsive to Sg1P treatment.

[2] = tested on: Sham-operated C57BL/6 mice; test: Sham-operated C57BL/6 mice: plasma ALT and creatinine; format: in vivo, mouse
Experimental: Mice were anesthetized with intraperitoneal pentobarbital (50 mg/kg or to effect). Mice were placed under a heating lamp and on a 37° C. heating pad. After a midline laparotomy and intraperitoneal application of 20 U heparin, left lateral and median lobes of the liver were subjected to ischemia with a microaneurysm clip occluding the hepatic triad above the bifurcation. This method of partial hepatic ischemia results in a segmental (˜70%) hepatic ischemia but spares the right lobe of the liver and prevents mesenteric venous congestion by allowing portal decompression throughout the right and caudate lobes of the liver. The liver was then repositioned in the peritoneal cavity in its original location for 60 minutes. The liver was kept moist with gauze soaked in 0.9% normal saline. The body temperature was monitored by an infrared temperature sensor (Linear Laboratories, Fremont, Calif.) every 10 min. and maintained at 37° C. using a heating lamp and a heating pad. After 60 minutes, the liver was reperfused and the wound closed. Sham-operated mice were subjected to laparotomy and identical liver manipulations without vascular occlusion. Two, 4 and 24 hr after reperfusion, plasma was collected for the measurement of alanine aminotransferase (ALT), a common indicator of liver damage, as well as creatinine (Cr) a common indicator of kidney damage. […]

[3] = tested on: C57BL/6 mice subjected to liver IR; test: Pro-inflammatory mRNA (RT-PCR) and plasma TNF-α/IL-6 after liver IR; format: in vivo, mouse
Experimental: Mice were anesthetized with intraperitoneal pentobarbital (50 mg/kg or to effect). Mice were placed under a heating lamp and on a 37° C. heating pad. After a midline laparotomy and intraperitoneal application of 20 U heparin, left lateral and median lobes of the liver were subjected to ischemia with a microaneurysm clip occluding the hepatic triad above the bifurcation. This method of partial hepatic ischemia results in a segmental (˜70%) hepatic ischemia but spares the right lobe of the liver and prevents mesenteric venous congestion by allowing portal decompression throughout the right and caudate lobes of the liver. The liver was then repositioned in the peritoneal cavity in its original location for 60 minutes. The liver was kept moist with gauze soaked in 0.9% normal saline. The body temperature was monitored by an infrared temperature sensor (Linear Laboratories, Fremont, Calif.) every 10 min. and maintained at 37° C. using a heating lamp and a heating pad. After 60 minutes, the liver was reperfused and the wound closed. Sham-operated mice were subjected to laparotomy and identical liver manipulations without vascular occlusion. Two, 4 and 24 hr after reperfusion, plasma was collected for the measurement of alanine aminotransferase (ALT), a common indicator of liver damage, as well as creatinine (Cr) a common indicator of kidney damage. The liver tissue subjected to IR was collected to measure percent liver necrosis (2, 4 and 24 hr after IR), neutrophil infiltration (with immunohistochemistry, 4 and 24 hr after IR), apoptosis (with terminal deoxynucleotidyl transferase-mediated dUTP nick end labeling staining, caspase 3 immunoblotting and DNA laddering, 24 hr after IR), and inflammation by RT-PCR for pro-inflammatory mRNAs (4 hr after IR).
The extent of the suppression was different between kidney and liver. […]

IHUVEC monolayers = test: Evans blue dye-albumin permeability of IHUVEC monolayers; format: cell-based, human
Experimental: IHUVEC—immortalized human umbilical vein endothelial cells (ATCC, P.O. Box 1549 Manassas, Va. 20108) or HRGEC—human renal glomerular endothelial cells (ScienCell Research Laboratories, 6076 Corte Del Cedro Carlsbad, Calif. 92011) were cultured within a humidified atmosphere of 5% CO2 in air and grown to confluence. When confluent, the cells were trypsinized and seeded onto 0.45 μm pore size polycarbonate filters at the base of inserts of 6.5 mm diameter Transwell chambers and cultured until confluence.
Human endothelial cell permeability was assessed with the Evans blue dye extravasation assay (Awad et al., 2006). The permeability characteristics of the resulting confluent monolayers were assessed by following the diffusion of albumin-conjugated Evan's blue dye from the upper to lower compartments of the Transwell chambers. After addition of dye, chambers were shaken and allowed to equilibrate for 10-30 min at 37° C. After equilibration, stimuli were added and dye levels in lower compartments intermittently assayed by spectrophotometric analysis.
The addition of TNF-α or thrombin induces apoptosis and increases cell permeability in cultured endothelial cells.

[4] = tested on: human epithelial HK-2 cell line; test: Kinase phosphorylation and HSP27 expression in HK-2 cells; format: cell-based; conditions: HK-2 (data not shown)
Source text: As shown above, Sg1P protects human endothelial cells, and does so through the same mechanism as shown in mouse tissue.

[5] = tested on: C57BL/6 mice subjected to liver IR; test: Murine model of liver ischemia reperfusion (hepatic IR): plasma ALT and creatinine; format: in vivo, mouse
[6] = tested on: SK2 KO mice subjected to liver IR; test: Liver IR in SK2 KO mice: plasma ALT and creatinine; format: in vivo, mouse; conditions: SK2KO, hepatic IR 24 h
Experimental: The effects of administering Sg1P (0.1 mg/kg i.v. and 0.2 mg/kg s.c.) on liver and renal injury were also determined in the KO mice and are also shown in Tables 9 and 10 below.

[7] = nephrectomized, 45 min. liver IR
[8] = 0.2 mg/kg i.v. 2 hours post-reperfusion
[9] = C57BL/6 mice, 60 min liver ischemia, 24 h reperfusion
[10] = single dose 0.1 mg/kg i.v. immediately before reperfusion
[11] = single dose 0.2 mg/kg s.c. two hours after reperfusion

CCCCCCCCCCCCCCC[C@@H](O)[C@@H](N)COP(=O)(O)O [Sg1P, sphinganine-1-phosphate]
Reduction in the severity of liver injury (change in ALT levels) ([1]; nephrectomized mice): 16% | ALT (24 hrs. post-IR), individual mice [1, 7]: 15993.65 U/L and 19276.19 U/L and 15819.05 U/L | ALT (24 hrs. post-IR), mean [1, 7]: 17029±1124 U/L and 17029.63 U/L | Mean ALT [2]: 80 U/L | Mean Creatinine [2]: 0.46 mg/dL | Liver IR-induced ICAM-1 and MIP-2 mRNA upregulation in kidney ([3]; kidney): suppressed | Liver IR-induced upregulation of ICAM-1, KC, MCP-1 and MIP-2 mRNA in liver ([3]; liver): suppressed | Liver IR-induced increase in plasma TNF-α and IL-6 ([3]; plasma): almost eliminated | Thrombin-induced permeability (albumin leak) (IHUVEC monolayers; 5 U/ml thrombin): same cytoprotective effect | TNF-α-induced permeability (albumin leak) (IHUVEC monolayers; TNF-α 50 ng/ml or 100 ng/ml, concurrent Sg1P): reduced the permeability of the cells to levels comparable to control | Phosphorylation of ERK/MAPK, Akt, HSP27 and HSP27 expression [4]: failed to phosphorylate ERK/MAPK, Akt and HSP27 and also failed to induce HSP27 expression | ALT (liver protection) [5, 8]: 12063±593 U/L | Creatinine (kidney protection) [5, 8]: 0.93 ± 0.05 mg/dL | Serum ALT (mean) [5, 9]: 7474±557 U/L and 7474 U/L | Serum creatinine (mean) [5, 9]: 0.528 ± 0.07 mg/dL and 0.55 mg/dL | Most effective dose for treating both kidney and liver failure ([5]; dose response 0.01-1.0 mg/kg i.v. prior to reperfusion plus double dose s.c. 2 h after, serum creatinine and ALT): 0.1 mg/kg i.v. prior to reperfusion followed by 0.2 mg/kg s.c. 2 hours after reperfusion | Reduction in the severity of liver injury (change in ALT levels) ([5]; non-nephrectomized mice): 50% | ALT [5, 10]: 7197±753 U/L | Cr [5, 10]: 0.58 ± 0.06 mg/dL | ALT [5, 11]: 14762±1732 U/L | Cr [5, 11]: 0.98 ± 0.06 mg/dL | Creatinine (mean) [6]: 0.679 mg/dL | ALT (mean) ([6]; 0.1 mg/kg i.v. and 0.2 mg/kg s.c.): 7575.28 U/L

— patent publication US20110294874A1, “DIAGNOSIS AND THERAPY OF ORGAN DYSFUNCTION USING SPHINGANINE-1-PHOSPHATE” (The Trustees of Columbia University in the City of New York, priority 2008, published 2011)
